ChEMBL document CHEMBL3046400, “Variation in the laboratory susceptibility of turf-infesting white grubs (Coleoptera: Scarabaeidae) to biological, biorational and chemical control products” (2010)

Tests used:
Type in all cases: functional
Maladera castanea [1] = experiment: Insecticidal activity against Maladera castanea assessed as mortality after 10 days; design: concentration or dose not given beside the values
Maladera castanea [2] = experiment: Insecticidal activity against Maladera castanea assessed as mortality after 20 days; design: concentration or dose not given beside the values
Amphimallon majale [3] = experiment: Insecticidal activity against Amphimallon majalis (European chafer) assessed as mortality after 10 days
Maladera castanea [4] = experiment: Insecticidal activity against Maladera castanea assessed as mortality after 30 days; design: concentration or dose not given beside the values
Popillia japonica [5] = experiment: Insecticidal activity against Popillia japonica assessed as mortality after 10 days
Anomala orientalis [6] = experiment: Insecticidal activity against Anomala orientalis assessed as mortality after 30 days; design: concentration or dose not given beside the values
Amphimallon majale [7] = experiment: Insecticidal activity against Amphimallon majalis (European chafer) assessed as mortality after 20 days
Amphimallon majale [8] = experiment: Insecticidal activity against Amphimallon majalis (European chafer) assessed as mortality after 30 days
Popillia japonica [9] = experiment: Insecticidal activity against Popillia japonica assessed as mortality after 30 days
Popillia japonica [10] = experiment: Insecticidal activity against Popillia japonica assessed as mortality after 20 days
Anomala orientalis [11] = experiment: Insecticidal activity against Anomala orientalis assessed as mortality after 10 days; design: concentration or dose not given beside the values
Anomala orientalis [12] = experiment: Insecticidal activity against Anomala orientalis assessed as mortality after 20 days; design: concentration or dose not given beside the values

Work on CC[C@H]1CCC[C@H](O[C@H]2CC[C@H](N(C)C)[C@@H](C)O2)[C@@H](C)C(=O)C2=C[C@@H]3[C@@H](C=C(C)[C@@H]4C[C@@H](O[C@@H]5O[C@@H](C)[C@H](OC)[C@@H](OC)[C@H]5OC)C[C@@H]34)[C@@H]2CC(=O)O1.CC[C@H]1CCC[C@H](O[C@H]2CC[C@H](N(C)C)[C@@H](C)O2)[C@@H](C)C(=O)C2=C[C@@H]3[C@@H](C=C[C@@H]4C[C@@H](O[C@@H]5O[C@@H](C)[C@H](OC)[C@@H](OC)[C@H]5OC)C[C@@H]34)[C@@H]2CC(=O)O1 yielded an Activity (Maladera castanea [1]) of 6.6%, an Activity (Maladera castanea [2]) of 20.6% and an Activity (Amphimallon majale [3]) of 17.1%. The Activity (Maladera castanea [4]) was 79.6%, the Activity (Popillia japonica [5]) was 7.3% and the Activity (Anomala orientalis [6]) was 59%. For the same compound, the Activity (Amphimallon majale [7]) was 11.8%, the Activity (Amphimallon majale [8]) was 26.5% and the Activity (Popillia japonica [9]) was 58.9%. It also gave an Activity (Popillia japonica [10]) of 33.5%, an Activity (Anomala orientalis [11]) of 3.2% and an Activity (Anomala orientalis [12]) of 31.4%.

C/C=C(\C)C(=O)O[C@H]1C[C@@H](OC(C)=O)[C@@]2(C(=O)OC)CO[C@H]3[C@@H](O)[C@@](C)([C@]45O[C@@]4(C)[C@@H]4C[C@H]5O[C@@H]5OC=C[C@@]54O)[C@H]4[C@]1(CO[C@]4(O)C(=O)OC)[C@@H]32 [AZADIRACHTIN A] gave an Activity (Amphimallon majale [3]) of 4%, an Activity (Popillia japonica [5]) of 74.3% and an Activity (Amphimallon majale [7]) of 1.1%. The Activity (Amphimallon majale [8]) was 15.8%, the Activity (Popillia japonica [9]) was 87.2% and the Activity (Popillia japonica [10]) was 64.1%.

Cc1c(COC(=O)[C@@H]2[C@H](/C=C(\Cl)C(F)(F)F)C2(C)C)cccc1-c1ccccc1 [BIFENTHRIN] gave an Activity (Amphimallon majale [3]) of 0%, an Activity (Popillia japonica [5]) of 36.9% and an Activity (Amphimallon majale [7]) of 0%. For the same compound, the Activity (Amphimallon majale [8]) was 0%, the Activity (Popillia japonica [9]) was 86.7% and the Activity (Popillia japonica [10]) was 59.3%.

In the case of CCOP(=S)(OCC)Oc1nc(Cl)c(Cl)cc1Cl [CHLORPYRIFOS], the Activity (Maladera castanea [1]) is reported as 65.5%, the Activity (Maladera castanea [2]) is reported as 89.6% and the Activity (Amphimallon majale [3]) is reported as 43%. For the same compound, the Activity (Maladera castanea [4]) was 92.4%, the Activity (Popillia japonica [5]) was 62.7% and the Activity (Anomala orientalis [6]) was 98.6%. For the same compound, the Activity (Amphimallon majale [7]) was 89%, the Activity (Amphimallon majale [8]) was 100% and the Activity (Popillia japonica [9]) was 100%. The Activity (Popillia japonica [10]) was 84.4%, the Activity (Anomala orientalis [11]) was 87.9% and the Activity (Anomala orientalis [12]) was 94.8%.

Compound CN/C(=N\[N+](=O)[O-])NCc1cnc(Cl)s1 [CLOTHIANIDINE] has an Activity (Maladera castanea [1]) of 39.8%, an Activity (Maladera castanea [2]) of 75.7% and an Activity (Amphimallon majale [3]) of 19.8%. It also gave an Activity (Maladera castanea [4]) of 100%, an Activity (Popillia japonica [5]) of 4% and an Activity (Anomala orientalis [6]) of 98.6%. The Activity (Amphimallon majale [7]) was 22.6%, the Activity (Amphimallon majale [8]) was 44.3% and the Activity (Popillia japonica [9]) was 32.8%. The Activity (Popillia japonica [10]) was 22.9%, the Activity (Anomala orientalis [11]) was 56% and the Activity (Anomala orientalis [12]) was 89.3%.

For CN/C(=N/CC1CCOC1)N[N+](=O)[O-] (stereo not given) [DINOTEFURAN], the Activity (Amphimallon majale [3]) was 0%, the Activity (Popillia japonica [5]) was 54.4% and the Activity (Amphimallon majale [7]) was 2.2%. For the same compound, the Activity (Amphimallon majale [8]) was 8.9%, the Activity (Popillia japonica [9]) was 86.2% and the Activity (Popillia japonica [10]) was 69.3%.

With O=[N+]([O-])/N=C1\NCCN1Cc1ccc(Cl)nc1 [IMIDACLOPRID] the Activity (Maladera castanea [1]) was 9.2%, the Activity (Maladera castanea [2]) was 12.2% and the Activity (Amphimallon majale [3]) was 13%. For the same compound, the Activity (Maladera castanea [4]) was 38.8%, the Activity (Popillia japonica [5]) was 9.1% and the Activity (Anomala orientalis [6]) was 68.3%. The Activity (Amphimallon majale [7]) was 18.3%, the Activity (Amphimallon majale [8]) was 34.2% and the Activity (Popillia japonica [9]) was 41.7%. The Activity (Popillia japonica [10]) was 22.6%, the Activity (Anomala orientalis [11]) was 9.7% and the Activity (Anomala orientalis [12]) was 30.1%.

Compound CN1COCN(Cc2cnc(Cl)s2)/C1=N\[N+](=O)[O-] [THIAMETHOXAM] has an Activity (Maladera castanea [1]) of 28.2%, an Activity (Maladera castanea [2]) of 39.1% and an Activity (Amphimallon majale [3]) of 13.1%. It also gave an Activity (Maladera castanea [4]) of 72.8%, an Activity (Popillia japonica [5]) of 48.1% and an Activity (Anomala orientalis [6]) of 78.7%. It also gave an Activity (Amphimallon majale [7]) of 16.4%, an Activity (Amphimallon majale [8]) of 35.1% and an Activity (Popillia japonica [9]) of 91%. The Activity (Popillia japonica [10]) was 74.9%, the Activity (Anomala orientalis [11]) was 27% and the Activity (Anomala orientalis [12]) was 57.5%.

COP(=O)(OC)C(O)C(Cl)(Cl)Cl (stereo not given) [TRICHLORFON] showed an Activity (Maladera castanea [1]) of 70.3%, an Activity (Maladera castanea [2]) of 97.7% and an Activity (Amphimallon majale [3]) of 6%. The Activity (Maladera castanea [4]) was 100%, the Activity (Popillia japonica [5]) was 71.3% and the Activity (Anomala orientalis [6]) was 96%. For the same compound, the Activity (Amphimallon majale [7]) was 2.6%, the Activity (Amphimallon majale [8]) was 7.4% and the Activity (Popillia japonica [9]) was 94.8%. It also gave an Activity (Popillia japonica [10]) of 92.6%, an Activity (Anomala orientalis [11]) of 95.6% and an Activity (Anomala orientalis [12]) of 95.1%.
